Assay results reported in US6759416B2, “Anticancer conjugates of camptothecin and unsaturated fatty acids” (priority 2002, dated 2004).
Like-named read-outs stand apart in the source and are kept apart here.

Key:
[1] = tested on: L1210 leukemia
Method: The compounds were tested in male BDF1 mice (18-22 g, 6 mice/group) bearing L1210 leukemia cells. Tumor lines were propagated in DBA/2 female mice with cell (10^5 cells/mouse) transfer every 7 days. Diluted ascitic fluid (0.1 mL) containing 10^5 leukemia cells were inoculated, i.p. in mice on day 0. Mice were injected with 0.1 mL of drug preparation.
A conjugate of HCPT and piperidinopiperidine, PP-HCPT, was synthesized, and its antitumor activity was evaluated against L1210 leukemia in mice.
DHA-HCPT was also tested using multiple doses (days 1, 5 and 9).

[2] = tested on: L1210 leukemia cells; assay: Anticancer activity assay in vitro: 48-h 3H-thymidine incorporation (proliferation) assay; format: cell-based, murine; settings: for IC50: L1210 leukemia cells, 48-h proliferation assay, 3H-thymidine uptake, mean of three experiments; for DNA fragmentation / apoptosis: L1210 cells, data not shown
Method: L1210 leukemia cells (2.5×10^4cells/well) in RPMI-1640 medium supplemented with 10% FCS medium were seeded in a 96-well plate. Drugs (10 μL) at increasing concentrations were added to each well, and the total volume was adjusted to 0.1 mL/well using the same medium. HCPT was used as a positive control. The plate was incubated for 24 h at 37° C. followed by addition of 10 μL of ^3H-thymidine (20 μCi/mL). The plate was incubated for another 24 h. The cells were harvested, and radioactivity was counted using the Packard Matrix 96 beta counter. The results were expressed as the minimal concentration that inhibits ^3H-thymidine incorporation by 50% (IC50). Percent growth inhibition was calculated as follows: [(total cpm—experimental cpm)/total cpm]×100. […] Doxorubicin (Dox) was used as a positive control.

[3] = tested on: Lewis lung carcinoma; assay: Antitumor activity against Lewis lung carcinoma in mice; format: in vivo
Method: For example, at a dose of 120 mg/kg, it inhibited tumor growth by 83% while the bodyweight loss was only 10%. The parent HCPT inhibited tumor growth by 57% at a dose of 20 mg/kg with a 24% weight loss. The group treated with DHA-HCPT also lived longer.

[4] = tested on: colon 38 carcinoma; assay: Antitumor activity against colon 38 carcinoma in mice (single dose, early stage and late stage); format: in vivo; settings: for weight loss: stated as loss
Description: However, DHA-HCPT (weight loss of 16%) is less toxic than cisplatin (weight loss of 20%).
The first experiment was designed to evaluate the antitumor activity of the drugs against early tumor, i.e., the tumors were transplanted on day 0, and the drugs were given beginning the next day. The second experiment was designed to evaluate the drug's activity against the established tumor, i.e., the tumors were transplanted on day 0, and the drugs were given when the tumors grew to 3-4 mm in size.
In the late tumor model, at a dose of 100 mg/kg, DHA-HCPT inhibited tumor growth by 80% (Table 10).

[5] = 150 mg/kg i.p. on days 1, 5 and 9
[6] = L1210, 48-h cell growth inhibition assay
[7] = 125 mg/kg i.p. on days 1, 5 and 9
[8] = 5 mg/kg i.p. on days 1, 5, and 9
[9] = 120 mg/kg i.p. on days 1, 5 and 9
[10] = early stage, 67 mg/kg i.p. on days 1, 5 and 9
[11] = early stage, 100 mg/kg i.p. on days 1, 5 and 9
[12] = late stage, 100 mg/kg i.p. on days 9, 13 and 17
[13] = 100 mg/kg i.p. on days 1, 5, and 9

Compound: CC[C@@]1(O)C(=O)OCc2c1cc1n(c2=O)Cc2cc3cc(OC(=O)N4CCC(N5CCCCC5)CC4)ccc3nc2-1 [PP-HCPT, 10-[4-(1-Piperidino)-1-piperidino]carbonyloxycamptothecin]
- % ILS ([1]; 37 mg/kg i.p. on day 1): 46%
- % Weight change ([1]; 37 mg/kg i.p. on day 1): 5%
- 30-day survivors ([1]; 37 mg/kg i.p. on day 1, 6 mice/group): 0
- % ILS ([1]; 73 mg/kg i.p. on day 1): 77%
- % Weight change ([1]; 73 mg/kg i.p. on day 1): 2%
- 30-day survivors ([1]; 73 mg/kg i.p. on day 1, 6 mice/group): 0
- % ILS [1, 5]: 123%
- % Weight change [1, 5]: −18%
- fold less potent than DHA-HCPT (IC50) [2, 6]: 16 fold
- fold less potent than HCPT (IC50) [2, 6]: 128 fold
- IC50 [2]: 30 µM

Compound: O=P1(N(CCCl)CCCl)NCCCO1 (stereo not drawn) [Cyclophosphamide, reference compound]
- % ILS [1, 7]: 173%
- % Weight change [1, 7]: −15%
- 30-day survivors (cures) ([1]; 125 mg/kg i.p. on days 1, 5 and 9, 6 mice/group): 0
- % ILS ([1]; 200 mg/kg i.p. on day 1): 123%
- % Weight change ([1]; 200 mg/kg i.p. on day 1): −9%
- 30-day survivors ([1]; 200 mg/kg i.p. on day 1, 6 mice/group): 0

Compound: CC[C@@]1(O)C(=O)OCc2c1cc1n(c2=O)Cc2cc3cc(O)ccc3nc2-1 [HCPT, 10-hydroxycamptothecin, reference compound]
- % ILS ([1]; 15 mg/kg i.p. on day 1): 77%
- % Weight change ([1]; 15 mg/kg i.p. on day 1): −10%
- bodyweight loss ([1]; 15 mg/kg, one dose, stated as loss): 10%
- % ILS ([1]; 20 mg/kg i.p. on day 1): 108%
- 30-day survivors ([1]; 20 mg/kg i.p. on day 1, 6 mice/group): 0
- % Weight change ([1]; 20 mg/kg i.p. on day 1, BDF1 mice, day 0 to lightest weight): −16%
- DNA fragmentation / apoptosis [2]: caused DNA fragmentation and cells died by apoptosis
- IC50 [2]: 0.23 µM
- % ILS ([3]; 20 mg/kg i.p. on day 1): 16%
- % TGI ([3]; 20 mg/kg i.p. on day 1): 57%
- % Weight change ([3]; 20 mg/kg i.p. on day 1): −24%
- Tumor weight (g ± SD) ([3]; 20 mg/kg i.p. on day 1, control 1.77 ± 0.89): 0.76 ± 0.59 g
- weight loss ([3]; 20 mg/kg, one dose i.p., stated as loss): 24%

Compound: N.N.[Cl][Pt][Cl] [Cisplatin, reference compound]
- % TGI ([4]; 10 mg/kg i.p. on day 1): 88%
- % Weight change ([4]; 10 mg/kg i.p. on day 1): −20%
- Tumor weight (g ± SD) ([4]; 10 mg/kg i.p. on day 1, control 1.20 ± 0.84): 0.14 ± 0.07 g
- weight loss ([4]; given once (10 mg/kg per Table 8)): 20%
- % TGI [3, 8]: 73%
- % Weight change [3, 8]: −19%
- Tumor weight (g ± SD) ([3]; 5 mg/kg i.p. on days 1, 5, and 9, control 1.20 ± 0.61): 0.32 ± 0.17 g

Compound: COc1cccc2c1C(=O)c1c(O)c3c(c(O)c1C2=O)C[C@@](O)(C(=O)CO)C[C@@H]3O[C@H]1C[C@H](N)[C@H](O)[C@H](C)O1 [Dox, Doxorubicin, reference compound]
- IC50 ([2]; Mus musculus): 0.18 ± 0.09 µM

Compound: CC/C=C\C/C=C\C/C=C\C/C=C\C/C=C\C/C=C\CCC(=O)Nc1ccc(CN2CCN(C(=O)Oc3ccc4nc5c(cc4c3)Cn3c-5cc4c(c3=O)COC(=O)[C@]4(O)CC)CC2)cc1 (stereo in doubt) [DHA-HCPT, 10-[4-[[4-(cis-4,7,10,13,16,19-Docosahexenoyl)amino]benzyl]-1-piperazino]carbonyl-oxycamptothecin]
- % ILS ([1]; 40 mg/kg i.p. on day 1): 108%
- % Weight change ([1]; 40 mg/kg i.p. on day 1): 2%
- 30-day survivors ([1]; 40 mg/kg i.p. on day 1, 6 mice/group): 0
- % ILS ([1]; 60 mg/kg i.p. on day 1): 138%
- % Weight change ([1]; 60 mg/kg i.p. on day 1): 1%
- 30-day survivors ([1]; 60 mg/kg i.p. on day 1, 6 mice/group): 0
- % ILS [1, 9]: 323%
- % Weight change [1, 9]: −12%
- % ILS ([1]; 180 mg/kg i.p. on day 1): 154%
- % Weight change ([1]; 180 mg/kg i.p. on day 1): −12%
- fold less potent than HCPT (IC50) [2, 6]: 8 fold
- DNA fragmentation / apoptosis [2]: caused DNA fragmentation and cells died by apoptosis
- IC50 [2]: 1.8 µM
- weight loss ([4]; 120 mg/kg given once): 16%
- % TGI ([4]; 120 mg/kg i.p. on day 1): 91%
- % Weight change ([4]; 120 mg/kg i.p. on day 1): −16%
- Tumor weight (g ± SD) ([4]; 120 mg/kg i.p. on day 1, control 1.20 ± 0.84): 0.11 ± 0.09 g
- % TGI [4, 10]: 43%
- % Weight change [4, 10]: −10%
- Tumor weight (g ± SD) ([4]; early stage, 67 mg/kg i.p. on days 1, 5 and 9, control 1.13 ± 0.39): 0.64 ± 0.50 g
- % TGI [4, 11]: 78%
- % Weight change [4, 11]: −12%
- Tumor weight (g ± SD) ([4]; early stage, 100 mg/kg i.p. on days 1, 5 and 9, control 1.13 ± 0.39): 0.25 ± 0.22 g
- % TGI ([4]; early stage, 150 mg/kg i.p. on days 1 and 5): 84%
- Tumor weight (g ± SD) ([4]; early stage, 150 mg/kg i.p. on days 1 and 5, control 1.13 ± 0.39): 0.18 ± 0.12 g
- % TGI [4, 12]: 80%
- % Weight change [4, 12]: −14%
- Tumor weight (g ± SD) ([4]; late stage, 100 mg/kg i.p. on days 9, 13 and 17, control 1.13 ± 0.39): 0.22 ± 0.14 g
- % TGI ([4]; late stage, 150 mg/kg i.p. on days 9 and 13): 79%
- Tumor weight (g ± SD) ([4]; late stage, 150 mg/kg i.p. on days 9 and 13, control 1.13 ± 0.39): 0.24 ± 0.18 g
- % ILS ([3]; 80 mg/kg i.p. on day 1): 23%
- % TGI ([3]; 80 mg/kg i.p. on day 1): 48%
- % Weight change ([3]; 80 mg/kg i.p. on day 1): −5%
- Tumor weight (g ± SD) ([3]; 80 mg/kg i.p. on day 1, control 1.77 ± 0.89): 0.93 ± 0.53 g
- % TGI [3, 13]: 88%
- % Weight change [3, 13]: −9%
- Tumor weight (g ± SD) ([3]; 100 mg/kg i.p. on days 1, 5, and 9, control 1.20 ± 0.61): 0.15 ± 0.10 g
- % ILS ([3]; 120 mg/kg i.p. on day 1): 33%
- % TGI ([3]; 120 mg/kg i.p. on day 1): 83%
- % Weight change ([3]; 120 mg/kg i.p. on day 1): −10%
- Tumor weight (g ± SD) ([3]; 120 mg/kg i.p. on day 1, control 1.77 ± 0.89): 0.31 ± 0.18 g
- cures ([3]; 120 mg/kg, multiple doses (days 1, 5, and 9)): 50%
- bodyweight loss ([3]; 120 mg/kg, one dose i.p., stated as loss): 10%
